#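 Cells were grown in 96-well plates and exposed to each compound for 48 hours at five concentrations; endpoints were interpolated linearly between bracketing concentrations, or set to the highest concentration if not reached. The concentration for 50% growth inhibition is given as GI50.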 Active and inactive are the calls of the source. No stated cut-off is given here; in the data, active = GI50 up to about 1.1 µM and inactive = higher.
# How the values were obtained:
# Assay in all cases: NCI tumour cell line growth inhibition, 48 h
# [1] = tested on: LOX IMVI
# [2] = tested on: SN12C
# [3] = tested on: MCF7
# [4] = tested on: NCI-H460
# [5] = tested on: U-251
# [6] = tested on: BT-549
# [7] = tested on: CAKI-1
# [8] = tested on: SK-OV-3
# [9] = tested on: HCT-15
# [10] = tested on: SF-539
# [11] = tested on: NCI-H23
# [12] = tested on: SF-268
# [13] = tested on: OVCAR-5
# [14] = tested on: COLO 205
# [15] = tested on: UACC-257
# [16] = tested on: A549
# [17] = tested on: NCI/ADR-RES
# [18] = tested on: HCC 2998
# [19] = tested on: Malme-3M
# [20] = tested on: SK-MEL-2
Structure (SMILES),GI50 [1],GI50 [2],GI50 [3],GI50 [4],GI50 [5],GI50 [6],GI50 [7],GI50 [8],GI50 [9] [µM],GI50 [10],GI50 [11],GI50 [12],GI50 [13],GI50 [14],GI50 [15],GI50 [16],GI50 [17],GI50 [18],GI50 [19],GI50 [20]
C/C(=N\NC(=S)N1CCN(C)CC1)c1nc2cccnc2[nH]1,> 100 µM (inactive),> 100 µM (inactive),20.4 µM (inactive),> 100 µM (inactive),> 100 µM (inactive),22.4 µM (inactive),> 100 µM (inactive),> 100 µM (inactive),> 100,> 100 µM (inactive),> 100 µM (inactive),> 100 µM (inactive),> 100 µM (inactive),> 100 µM (inactive),> 100 µM (inactive),> 100 µM (inactive),> 100 µM (inactive),> 100 µM (inactive),> 100 µM (inactive),–
Cc1cn(C2CC(/[N+]([O-])=N\Nc3ccc([N+](=O)[O-])cc3)C(CO)O2)c(=O)[nH]c1=O (configuration not stated),> 100 µM (inactive),> 100 µM (inactive),–,94.2 µM (inactive),> 100 µM (inactive),> 100 µM (inactive),> 100 µM (inactive),> 100 µM (inactive),> 100,> 100 µM (inactive),> 100 µM (inactive),> 100 µM (inactive),> 100 µM (inactive),> 100 µM (inactive),> 100 µM (inactive),> 100 µM (inactive),> 100 µM (inactive),40.7 µM (inactive),> 100 µM (inactive),–
COC(=O)[C@H](CC(C)C)NC1=C(Cl)C(=O)c2c(O)ccc(O)c2C1=O,1.8 µM (inactive),> 10 µM (inactive),–,> 10 µM (inactive),> 10 µM (inactive),> 10 µM (inactive),> 10 µM (inactive),> 10 µM (inactive),3.05,9.02 µM (inactive),6.53 µM (inactive),> 10 µM (inactive),> 10 µM (inactive),4.34 µM (inactive),> 10 µM (inactive),7.24 µM (inactive),> 10 µM (inactive),> 10 µM (inactive),0.887 µM (active),> 10 µM (inactive)
COc1ccc(-[n+]2nc(S(=O)(=O)O)c(/C=C/c3ccc(N(C)C)cc3)cc2C#N)cc1,> 100 µM (inactive),> 100 µM (inactive),> 100 µM (inactive),–,> 100 µM (inactive),> 100 µM (inactive),> 100 µM (inactive),> 100 µM (inactive),> 100,> 100 µM (inactive),> 100 µM (inactive),> 100 µM (inactive),> 100 µM (inactive),> 100 µM (inactive),> 100 µM (inactive),> 100 µM (inactive),> 100 µM (inactive),> 100 µM (inactive),–,> 100 µM (inactive)
COc1ccc(-c2nc(-c3cc4c(ccc5ccccc54)oc3=O)cs2)cc1,> 100 µM (inactive),> 100 µM (inactive),> 100 µM (inactive),> 100 µM (inactive),> 10 µM (inactive),> 100 µM (inactive),> 100 µM (inactive),> 100 µM (inactive),> 100,> 100 µM (inactive),–,> 100 µM (inactive),> 100 µM (inactive),> 100 µM (inactive),> 100 µM (inactive),> 100 µM (inactive),–,> 100 µM (inactive),–,> 100 µM (inactive)
CCOC(=O)c1ccc(C(=O)C(C(C)=O)C(=O)OC(C)(C)C)n1C (configuration not stated),> 100 µM (inactive),> 100 µM (inactive),> 100 µM (inactive),> 100 µM (inactive),> 100 µM (inactive),> 100 µM (inactive),> 100 µM (inactive),> 100 µM (inactive),> 100,–,> 100 µM (inactive),> 100 µM (inactive),> 100 µM (inactive),> 100 µM (inactive),> 100 µM (inactive),> 100 µM (inactive),> 100 µM (inactive),> 100 µM (inactive),> 100 µM (inactive),> 100 µM (inactive)
CCOC(=O)c1ccc2c(c1)Cc1cc([N+](=O)[O-])ccc1-2,41.2 µM (inactive),89.3 µM (inactive),19.3 µM (inactive),50.9 µM (inactive),39.4 µM (inactive),30.1 µM (inactive),36.6 µM (inactive),29.6 µM (inactive),57.8,36.1 µM (inactive),32.4 µM (inactive),24 µM (inactive),57.4 µM (inactive),23.2 µM (inactive),48.1 µM (inactive),33.7 µM (inactive),25.1 µM (inactive),–,> 100 µM (inactive),–
COc1cc(O)c(C(=O)/C=C/c2ccc(O)cc2)cc1Oc1ccc(C(=O)/C=C/c2ccc(O)cc2)c(O)c1 [RHUSCHALCONE IV],3.4 µM (inactive),2.45 µM (inactive),2.69 µM (inactive),2.88 µM (inactive),1.93 µM (inactive),2.92 µM (inactive),3.5 µM (inactive),2.88 µM (inactive),1.79,2.37 µM (inactive),2.67 µM (inactive),2.96 µM (inactive),2.69 µM (inactive),1.88 µM (inactive),6.19 µM (inactive),2.96 µM (inactive),2.91 µM (inactive),–,2.58 µM (inactive),3.36 µM (inactive)
CS(=O)(=O)c1nc(-c2cc3c(c(S(C)(=O)=O)n2)CCCC3)cc2c1CCCCC2,–,> 100 µM (inactive),–,–,> 100 µM (inactive),> 100 µM (inactive),59.3 µM (inactive),72.4 µM (inactive),> 100,–,> 100 µM (inactive),16.8 µM (inactive),> 100 µM (inactive),> 100 µM (inactive),> 100 µM (inactive),> 100 µM (inactive),> 100 µM (inactive),–,–,> 100 µM (inactive)
COC(=O)Nc1nc2cc(S(=O)(=O)n3nnc4ccccc43)ccc2[nH]1,> 100 µM (inactive),> 100 µM (inactive),28.1 µM (inactive),> 100 µM (inactive),26.6 µM (inactive),17.6 µM (inactive),54.2 µM (inactive),17.1 µM (inactive),> 100,10.2 µM (inactive),41.7 µM (inactive),21.5 µM (inactive),> 100 µM (inactive),> 100 µM (inactive),5.61 µM (inactive),> 100 µM (inactive),> 100 µM (inactive),–,30.5 µM (inactive),> 100 µM (inactive)
Cc1cc2c(=O)[nH]nc(N)c2c(N)n1,> 100 µM (inactive),> 100 µM (inactive),> 100 µM (inactive),> 100 µM (inactive),> 100 µM (inactive),> 100 µM (inactive),> 100 µM (inactive),> 100 µM (inactive),> 100,–,> 100 µM (inactive),> 100 µM (inactive),> 100 µM (inactive),> 100 µM (inactive),> 100 µM (inactive),> 100 µM (inactive),> 100 µM (inactive),> 100 µM (inactive),> 100 µM (inactive),> 100 µM (inactive)
COc1ccc(C(=O)/C=C/c2ccncc2)cc1OC,1.47 µM (inactive),15.8 µM (inactive),3.74 µM (inactive),–,11.2 µM (inactive),6.22 µM (inactive),15.7 µM (inactive),17.2 µM (inactive),15.4,10.3 µM (inactive),10.7 µM (inactive),13.7 µM (inactive),14.3 µM (inactive),15.5 µM (inactive),12.9 µM (inactive),15.7 µM (inactive),19.7 µM (inactive),–,18.3 µM (inactive),16.7 µM (inactive)
[O-][S+](c1ccc(Cl)cc1)c1ccccc1C1=NCCN1 (configuration not stated),–,> 100 µM (inactive),> 100 µM (inactive),> 100 µM (inactive),> 100 µM (inactive),> 100 µM (inactive),> 100 µM (inactive),> 100 µM (inactive),> 100,–,> 100 µM (inactive),> 100 µM (inactive),> 100 µM (inactive),> 100 µM (inactive),> 100 µM (inactive),> 100 µM (inactive),> 100 µM (inactive),> 100 µM (inactive),> 100 µM (inactive),> 100 µM (inactive)
C/C(=N/O)c1cccc(Nc2nc3ccc(Cl)cc3c3[nH]c4ccccc4c23)c1,1.91 µM (inactive),2.51 µM (inactive),0.935 µM (active),1.14 µM (inactive),2.44 µM (inactive),2.93 µM (inactive),2.24 µM (inactive),3.42 µM (inactive),1.44,3.33 µM (inactive),1.92 µM (inactive),1.53 µM (inactive),2.07 µM (inactive),1.77 µM (inactive),3.53 µM (inactive),1.6 µM (inactive),1.92 µM (inactive),–,–,1.93 µM (inactive)
N#Cc1ccc(OC(=O)c2ccc(NC(=N)N)cc2)cc1.c1ccncc1,80.7 µM (inactive),63.2 µM (inactive),39.9 µM (inactive),> 100 µM (inactive),61.2 µM (inactive),88.7 µM (inactive),80 µM (inactive),> 100 µM (inactive),46.9,73.6 µM (inactive),> 100 µM (inactive),51.1 µM (inactive),> 100 µM (inactive),39.1 µM (inactive),> 100 µM (inactive),> 100 µM (inactive),> 100 µM (inactive),–,> 100 µM (inactive),> 100 µM (inactive)

# Source: ChEMBL document CHEMBL1201862, “PubChem BioAssay data set” (2004)
